Data as given in PubChem BioAssay (NCI).
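Values below derive from 48-hour exposures of cells grown in 96-well plates, with endpoints linearly interpolated between the two concentrations bracketing the appropriate inhibition level. The concentration for full growth arrest is given as TGI.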

Legend:
Experiment in all cases: NCI-60 cell line screen, 48 h
NCI-H23 lung = test system: NCI-H23 lung
NCI-H460 lung = test system: NCI-H460 lung
SF-295 CNS = test system: SF-295 CNS
NCI/ADR-RES ovarian = test system: NCI/ADR-RES ovarian
ACHN renal = test system: ACHN renal
OVCAR-4 ovarian = test system: OVCAR-4 ovarian
UACC-257 melanoma = test system: UACC-257 melanoma
MDA-MB-231 breast = test system: MDA-MB-231 breast
A498 renal = test system: A498 renal
MCF7 breast = test system: MCF7 breast

| Structure (SMILES) | TGI (NCI-H23 lung) | TGI (NCI-H460 lung) | TGI (SF-295 CNS) | TGI (NCI/ADR-RES ovarian) | TGI (ACHN renal) | TGI (OVCAR-4 ovarian) | TGI (UACC-257 melanoma) | TGI (MDA-MB-231 breast) | TGI (A498 renal) | TGI (MCF7 breast) |
| --- | --- | --- | --- | --- | --- | --- | --- | --- | --- | --- |
| COC(=O)C(N)CCCC(N)C(=O)NC(C)C(=O)NC(CCC(=O)NCCCNc1ccc([N+](=O)[O-])c2[nH]c3ccccc3c(=O)c12)C(N)=O (centres undefined) | 17.9 µM | 17.2 µM | 20.9 µM | 25 µM | 16.2 µM | 20.2 µM | 23.2 µM | 28.8 µM | 30.7 µM |  |
| O=[N+]([O-])c1cc(Cl)ccc1S(=O)(=O)c1cc(Cl)cc2c1NCCC2 |  | > 100 µM | > 100 µM | > 100 µM | > 100 µM | > 100 µM | 64.8 µM | > 100 µM | > 100 µM | > 100 µM |
| c1ccc(-c2nc3ccccc3n3nnnc23)cc1 | > 100 µM | > 100 µM |  | > 100 µM | > 100 µM | > 100 µM | > 100 µM | > 100 µM | > 100 µM | > 100 µM |
| CC(C)=CCC/C(C)=C/CC/C(C)=C/CSc1ccc(Cl)cc1C(=O)O | 34.9 µM | 32.7 µM | 31.4 µM |  | 35.9 µM | 86.8 µM | 82.2 µM | 63.4 µM | 38.7 µM | 32.8 µM |
| c1ccc2nn(C3CCCCO3)nc2c1 (centres undefined) | > 100 µM | > 100 µM | > 100 µM | > 100 µM | > 100 µM | > 100 µM | > 100 µM | > 100 µM |  | > 100 µM |
| CCOC(=O)C12C(=O)CCN1CCc1ccccc1C2C (centres undefined) | > 100 µM |  | > 100 µM | > 100 µM | > 100 µM | > 100 µM | > 100 µM | > 100 µM | > 100 µM | > 100 µM |
| Cc1nn(-c2ccccc2)c2c1N=C(C(=O)O)CC(c1ccccc1)=N2 | > 10 µM |  | > 10 µM | > 10 µM | > 10 µM | > 10 µM | > 10 µM | > 10 µM |  | > 10 µM |
| O=Cc1cc(O)c(O)c(/C=N/n2c3ccccc3c3ccccc32)c1 | 34.7 µM | 36.7 µM | 27.7 µM |  | 21.1 µM | 13.5 µM | 27.9 µM | 30.2 µM | 49.8 µM | 4.62 µM |
| O=C1C=C(NCCc2cc(Br)c(O)c(Br)c2)C(=O)c2[nH]cnc21 | 50.8 µM | > 100 µM | > 100 µM | > 100 µM | > 100 µM | 94.9 µM | 44.4 µM | 67.9 µM |  | 48.9 µM |
| CC(=O)C(C(=O)C(C)(C)C)C(=O)C(C)(C)C |  | > 100 µM | > 100 µM | > 100 µM | > 100 µM | > 100 µM | > 100 µM | > 100 µM |  | > 100 µM |
| CCOC(=O)CN(Cc1ccccc1)Cc1c(C(=O)c2ccccc2)c2ccccc2n1C(=O)c1ccccc1 | > 100 µM | > 100 µM | > 100 µM |  | > 100 µM | > 100 µM |  |  | > 100 µM |  |
